Calls of active or inactive are those of the source. No rule for the calls is given here.
Tested on: CCRIS mutagenicity, Ames/micronucleus/aberration tests
Experiment: CCRIS mutagenicity studies
[1] = Test System: AMES SALMONELLA TYPHIMURIUM, Strain/Indicator: TA98, Metabolic Activation: NONE, Method: PREINCUBATION
[2] = Test System: AMES SALMONELLA TYPHIMURIUM, Strain/Indicator: TA100, Metabolic Activation: NONE, Method: PREINCUBATION
[3] = Test System: AMES SALMONELLA TYPHIMURIUM, Strain/Indicator: TA1535, Metabolic Activation: NONE, Method: PREINCUBATION
[4] = Test System: AMES SALMONELLA TYPHIMURIUM, Strain/Indicator: TA100, Metabolic Activation: NONE, Method: STANDARD PLATE

In the case of `S=[Se]`, the mutagenic call (End Point: IN VITRO CHROMOSOMAL ABERRATIONS, Test System: CHO-LB CELLS, Metabolic Activation: NONE) is reported as “active; positive”, the mutagenic call (End Point: IN VITRO CHROMOSOMAL ABERRATIONS, Test System: CHO-LB CELLS, Metabolic Activation: RAT, LIVER, S-9, AROCLOR 1254) is reported as “active; positive” and the mutagenic call (Test System: AMES SALMONELLA TYPHIMURIUM, Strain/Indicator: TA97, Metabolic Activation: HAMSTER, LIVER, S-9, AROCLOR 1254 (5 OR 10%), Method: PREINCUBATION) is reported as “active; positive”. For the same molecule, the mutagenic call (Test System: AMES SALMONELLA TYPHIMURIUM, Strain/Indicator: TA97, Metabolic Activation: HAMSTER, LIVER, S-9, AROCLOR 1254 (30%), Method: PREINCUBATION) was “inactive; negative”, the mutagenic call (Test System: AMES SALMONELLA TYPHIMURIUM, Strain/Indicator: TA97, Metabolic Activation: NONE, Method: PREINCUBATION) was “active; positive” and the mutagenic call (Test System: AMES SALMONELLA TYPHIMURIUM, Strain/Indicator: TA97, Metabolic Activation: RAT, LIVER, S-9, AROCLOR 1254 (5 OR 10%), Method: PREINCUBATION) was “active; positive”. The mutagenic call (Test System: AMES SALMONELLA TYPHIMURIUM, Strain/Indicator: TA97, Metabolic Activation: RAT, LIVER, S-9, AROCLOR 1254 (30%), Method: PREINCUBATION) was “inactive; negative”, the mutagenic call (Test System: AMES SALMONELLA TYPHIMURIUM, Strain/Indicator: TA98, Metabolic Activation: HAMSTER, LIVER, S-9, AROCLOR 1254 (10%), Method: PREINCUBATION) was “inactive; negative” and the mutagenic call [1] was “inactive; negative”. For the same molecule, the mutagenic call (Test System: AMES SALMONELLA TYPHIMURIUM, Strain/Indicator: TA98, Metabolic Activation: RAT, LIVER, S-9, AROCLOR 1254 (10%), Method: PREINCUBATION) was “inactive; negative”, the mutagenic call (Test System: AMES SALMONELLA TYPHIMURIUM, Strain/Indicator: TA100, Metabolic Activation: HAMSTER, LIVER, S-9, AROCLOR 1254 (5%), Method: PREINCUBATION) was “inactive; negative” and the mutagenic call (Test System: AMES SALMONELLA TYPHIMURIUM, Strain/Indicator: TA100, Metabolic Activation: HAMSTER, LIVER, S-9, AROCLOR 1254 (10%), Method: PREINCUBATION) was “active; positive”. For the same molecule, the mutagenic call [2] was “inactive; negative”, the mutagenic call (Test System: AMES SALMONELLA TYPHIMURIUM, Strain/Indicator: TA100, Metabolic Activation: RAT, LIVER, S-9, AROCLOR 1254 (5 OR 10%), Method: PREINCUBATION) was “inactive; negative” and the mutagenic call (Test System: AMES SALMONELLA TYPHIMURIUM, Strain/Indicator: TA1535, Metabolic Activation: HAMSTER, LIVER, S-9, AROCLOR 1254 (10%), Method: PREINCUBATION) was “inactive; negative”. For the same molecule, the mutagenic call [3] was “inactive; negative” and the mutagenic call (Test System: AMES SALMONELLA TYPHIMURIUM, Strain/Indicator: TA1535, Metabolic Activation: RAT, LIVER, S-9, AROCLOR 1254 (10%), Method: PREINCUBATION) was “inactive; negative”.

In the case of `Cc1cnc2c(C)cc3c(nc(N)n3C)c2n1`, the mutagenic call (Test System: AMES SALMONELLA TYPHIMURIUM, Strain/Indicator: TA98, Metabolic Activation: RAT, LIVER, S-9, AROCLOR 1254, Method: STANDARD PLATE) is reported as “active; positive”.

In the case of `CC(C)(C)c1ccc(C(=O)ON(OCc2ccccc2)C(=O)c2ccccc2)cc1`, the mutagenic call [4] is reported as “active; positive”.

In the case of `C(=C\c1ccccc1)/c1ccccc1`, the mutagenic call (Test System: AMES SALMONELLA TYPHIMURIUM, Strain/Indicator: TA98, Metabolic Activation: HAMSTER, LIVER, S-9, AROCLOR 1254, Method: PREINCUBATION) is reported as “inactive; negative”, the mutagenic call [1] is reported as “inactive; negative” and the mutagenic call (Test System: AMES SALMONELLA TYPHIMURIUM, Strain/Indicator: TA98, Metabolic Activation: RAT, LIVER, S-9, AROCLOR 1254, Method: PREINCUBATION) is reported as “inactive; negative”. For the same molecule, the mutagenic call (Test System: AMES SALMONELLA TYPHIMURIUM, Strain/Indicator: TA100, Metabolic Activation: HAMSTER, LIVER, S-9, AROCLOR 1254, Method: PREINCUBATION) was “inactive; negative”, the mutagenic call [2] was “inactive; negative” and the mutagenic call (Test System: AMES SALMONELLA TYPHIMURIUM, Strain/Indicator: TA100, Metabolic Activation: RAT, LIVER, S-9, AROCLOR 1254, Method: PREINCUBATION) was “inactive; negative”. The mutagenic call (Test System: AMES SALMONELLA TYPHIMURIUM, Strain/Indicator: TA1535, Metabolic Activation: HAMSTER, LIVER, S-9, AROCLOR 1254, Method: PREINCUBATION) was “inactive; negative”, the mutagenic call [3] was “inactive; negative” and the mutagenic call (Test System: AMES SALMONELLA TYPHIMURIUM, Strain/Indicator: TA1535, Metabolic Activation: RAT, LIVER, S-9, AROCLOR 1254, Method: PREINCUBATION) was “inactive; negative”. The mutagenic call (Test System: AMES SALMONELLA TYPHIMURIUM, Strain/Indicator: TA1537, Metabolic Activation: HAMSTER, LIVER, S-9, AROCLOR 1254, Method: PREINCUBATION) was “inactive; negative”, the mutagenic call (Test System: AMES SALMONELLA TYPHIMURIUM, Strain/Indicator: TA1537, Metabolic Activation: NONE, Method: PREINCUBATION) was “inactive; negative” and the mutagenic call (Test System: AMES SALMONELLA TYPHIMURIUM, Strain/Indicator: TA1537, Metabolic Activation: RAT, LIVER, S-9, AROCLOR 1254, Method: PREINCUBATION) was “inactive; negative”.

`Nc1ccc2[nH]c3ccccc3c2c1` was tested, and the mutagenic call (Test System: AMES SALMONELLA TYPHIMURIUM, Strain/Indicator: TA98, Metabolic Activation: NONE, Method: STANDARD PLATE) was “inactive; negative”, the mutagenic call (Test System: AMES SALMONELLA TYPHIMURIUM, Strain/Indicator: TA98, Metabolic Activation: RAT LIVER S-9, AROCLOR 1254, Method: STANDARD PLATE) was “active; positive” and the mutagenic call (Test System: AMES SALMONELLA TYPHIMURIUM, Strain/Indicator: TA98, Metabolic Activation: RAT, LIVER, S-9, PHENOBARBITAL, Method: STANDARD PLATE) was “active; positive”. For the same molecule, the mutagenic call [4] was “inactive; negative”, the mutagenic call (Test System: AMES SALMONELLA TYPHIMURIUM, Strain/Indicator: TA100, Metabolic Activation: RAT LIVER S-9, AROCLOR 1254, Method: STANDARD PLATE) was “inactive; negative” and the mutagenic call (Test System: AMES SALMONELLA TYPHIMURIUM, Strain/Indicator: TA100, Metabolic Activation: RAT, LIVER, S-9, PHENOBARBITAL, Method: STANDARD PLATE) was “inactive; negative”. For the same molecule, the mutagenic call (Test System: AMES SALMONELLA TYPHIMURIUM, Strain/Indicator: TA1537, Metabolic Activation: NONE, Method: STANDARD PLATE) was “inactive; negative”, the mutagenic call (Test System: AMES SALMONELLA TYPHIMURIUM, Strain/Indicator: TA1537, Metabolic Activation: RAT, LIVER, S-9, PHENOBARBITAL, Method: STANDARD PLATE) was “inactive; negative” and the mutagenic call (Test System: AMES SALMONELLA TYPHIMURIUM, Strain/Indicator: TA1538, Metabolic Activation: NONE, Method: STANDARD PLATE) was “inactive; negative”. For the same molecule, the mutagenic call (Test System: AMES SALMONELLA TYPHIMURIUM, Strain/Indicator: TA1538, Metabolic Activation: RAT, LIVER, S-9, PHENOBARBITAL, Method: STANDARD PLATE) was “active; positive”, the mutagenic call (Test System: AMES SALMONELLA TYPHIMURIUM, Strain/Indicator: TA1977, Metabolic Activation: NONE, Method: STANDARD PLATE) was “inactive; negative” and the mutagenic call (Test System: AMES SALMONELLA TYPHIMURIUM, Strain/Indicator: TA1977, Metabolic Activation: RAT, LIVER, S-9, PHENOBARBITAL, Method: STANDARD PLATE) was “inactive; negative”.

From PubChem BioAssay AID1259407 (Chemical Carcinogenesis Research Information System (CCRIS), 2018)
